Laboratory results reported in BigSolDB 2.1.

Molecule `Nc1ccc(Cc2ccc(N)cc2)cc1` has a solubility (mole fraction) (in benzene, 293.15 K) of 0.0207, a solubility (mole fraction) (in benzene, 298.15 K) of 0.0299 and a solubility (mole fraction) (in benzene, 303.15 K) of 0.039. For the same molecule, the solubility (mole fraction) (in benzene, 308.15 K) was 0.0499, the solubility (mole fraction) (in benzene, 313.15 K) was 0.066 and the solubility (mole fraction) (in benzene, 318.15 K) was 0.0865. It also gave a solubility (mole fraction) (in benzene, 323.15 K) of 0.114, a solubility (mole fraction) (in chloroform, 293.15 K) of 0.123 and a solubility (mole fraction) (in chloroform, 298.15 K) of 0.142. It also gave a solubility (mole fraction) (in chloroform, 303.15 K) of 0.165, a solubility (mole fraction) (in chloroform, 308.15 K) of 0.197 and a solubility (mole fraction) (in chloroform, 313.15 K) of 0.23. It also gave a solubility (mole fraction) (in chloroform, 318.15 K) of 0.269, a solubility (mole fraction) (in chloroform, 323.15 K) of 0.306 and a solubility (mole fraction) (in ethanol, 293.15 K) of 0.0335. The solubility (mole fraction) (in ethanol, 298.15 K) was 0.0461, the solubility (mole fraction) (in ethanol, 303.15 K) was 0.0637 and the solubility (mole fraction) (in ethanol, 308.15 K) was 0.0842. The solubility (mole fraction) (in ethanol, 313.15 K) was 0.11, the solubility (mole fraction) (in ethanol, 318.15 K) was 0.15 and the solubility (mole fraction) (in ethanol, 323.15 K) was 0.198. It also gave a solubility (mole fraction) (in ethanol, 328.15 K) of 0.267, a solubility (mole fraction) (in isopropanol, 293.15 K) of 0.011 and a solubility (mole fraction) (in isopropanol, 298.15 K) of 0.0136. For the same molecule, the solubility (mole fraction) (in isopropanol, 303.15 K) was 0.0178, the solubility (mole fraction) (in isopropanol, 308.15 K) was 0.0236 and the solubility (mole fraction) (in isopropanol, 313.15 K) was 0.0312. For the same molecule, the solubility (mole fraction) (in isopropanol, 318.15 K) was 0.0411, the solubility (mole fraction) (in isopropanol, 323.15 K) was 0.0536 and the solubility (mole fraction) (in isopropanol, 328.15 K) was 0.0696. The solubility (mole fraction) (in isopropanol, 333.15 K) was 0.0898, the solubility (mole fraction) (in methanol, 293.15 K) was 0.127 and the solubility (mole fraction) (in methanol, 298.15 K) was 0.157. For the same molecule, the solubility (mole fraction) (in methanol, 303.15 K) was 0.187, the solubility (mole fraction) (in methanol, 308.15 K) was 0.219 and the solubility (mole fraction) (in methanol, 313.15 K) was 0.259. The solubility (mole fraction) (in methanol, 318.15 K) was 0.3, the solubility (mole fraction) (in methanol, 323.15 K) was 0.347 and the solubility (mole fraction) (in methanol, 328.15 K) was 0.403. It also gave a solubility (mole fraction) (in n-butanol, 293.15 K) of 0.0187, a solubility (mole fraction) (in n-butanol, 298.15 K) of 0.0231 and a solubility (mole fraction) (in n-butanol, 303.15 K) of 0.0296. For the same molecule, the solubility (mole fraction) (in n-butanol, 308.15 K) was 0.0371, the solubility (mole fraction) (in n-butanol, 313.15 K) was 0.0476 and the solubility (mole fraction) (in n-butanol, 318.15 K) was 0.0582. For the same molecule, the solubility (mole fraction) (in n-butanol, 323.15 K) was 0.0713, the solubility (mole fraction) (in n-butanol, 328.15 K) was 0.0885 and the solubility (mole fraction) (in n-butanol, 333.15 K) was 0.108. The solubility (mole fraction) (in toluene, 293.15 K) was 0.0156, the solubility (mole fraction) (in toluene, 298.15 K) was 0.0195 and the solubility (mole fraction) (in toluene, 303.15 K) was 0.0244. For the same molecule, the solubility (mole fraction) (in toluene, 308.15 K) was 0.03, the solubility (mole fraction) (in toluene, 313.15 K) was 0.038 and the solubility (mole fraction) (in toluene, 318.15 K) was 0.0487. For the same molecule, the solubility (mole fraction) (in toluene, 323.15 K) was 0.0599, the solubility (mole fraction) (in toluene, 328.15 K) was 0.075 and the solubility (mole fraction) (in toluene, 333.15 K) was 0.0932.
